This passage reports EC50 and GI50 results from ChEMBL document CHEMBL1127233, “Isolation and structure of axinastatin 5 from a republic of comoros marine sponge” (1994).

Holding throughout (assay type): functional
One assay concerns P388. Nature of the assay: Inhibitory activity against murine P388 leukemia cell line. The following applies: Mus musculus, read-out: ED50 (the source's name).
The subject of another assay is SK-MEL-5. Nature of the assay: Growth inhibitory activity against SK-MEL-5 human cancer cell line.
The test system of another assay is OVCAR-3. As to the kind of experiment: Growth inhibitory activity against OVCAR-3 human cancer cell line.
The test system of another assay is NCI-H460. Nature of the assay: Growth inhibitory activity against NCI-H460 human cancer cell line.
In another assay the test system is A498. Nature of the assay: Growth inhibitory activity against A498 human cancer cell line.
For another assay, the system named is KM-20L2. As to the kind of experiment: Growth inhibitory activity against KM20L2 human cancer cell line.
The next assay deals with SF-295. As to the kind of experiment: Growth inhibitory activity against SF-295 human cancer cell line.

The structures appear in SMILES notation. In brackets after ≈: the same amount, converted by molar mass. Peptide text beside a SMILES is read from it.

As to `CC[C@H](C)[C@@H]1NC(=O)[C@H](CC(C)C)NC(=O)[C@@H]2CCCN2C(=O)[C@H](C(C)C)NC(=O)[C@H](Cc2ccc(O)cc2)NC(=O)[C@@H]2CCCN2C(=O)[C@@H]2CCCN2C(=O)[C@H](CC(C)C)NC1=O` [AXINASTATIN 5] (cyclo(ILPPYVPL)), in the assay with P388, the EC50 was 3.5 µg/mL (≈ 3.92 µM). Further, the GI50 – broadly, the concentration at which growth is held to half of that of the control – in the assay on SK-MEL-5 (read-out: GI50) was determined as 0.5 µg/mL (≈ 0.56 µM); with OVCAR-3 (read-out: GI50), 0.3 µg/mL (≈ 0.336 µM); in the assay on NCI-H460, 0.5 µg/mL (≈ 0.56 µM); in the assay with A498 (read-out: GI50), 2.3 µg/mL (≈ 2.58 µM); in the assay on KM-20L2 (read-out: GI50), 0.7 µg/mL (≈ 0.784 µM); in the assay with SF-295 (read-out: GI50), 1.6 µg/mL (≈ 1.79 µM).

On to `CC[C@H](C)[C@@H]1NC(=O)[C@H](CC(C)C)NC(=O)[C@@H]2CCCN2C(=O)[C@H](C(C)C)NC(=O)[C@H](Cc2ccc(O)cc2)NC(=O)[C@@H]2CCCN2C(=O)[C@@H]2CCCN2C(=O)[C@H]([C@@H](C)CC)NC1=O` [Hymenistatin 1] (cyclo(IIPPYVPL)), for which the GI50 came to 0.6 µg/mL (≈ 0.672 µM) in the assay on SK-MEL-5; 0.04 µg/mL (≈ 0.0448 µM) in the assay on OVCAR-3; 0.3 µg/mL (≈ 0.336 µM) with NCI-H460; 0.7 µg/mL (≈ 0.784 µM) with A498; 0.1 µg/mL (≈ 0.112 µM) in the assay with KM-20L2; 0.3 µg/mL (≈ 0.336 µM) in the assay on SF-295.
